# Data as given in patent publication US5559127A, “Fibrinogen receptor antagonists” (Merck & Co., Inc., priority 1995, dated 1996).
# Test system: human platelets
# Assay: ADP-stimulated platelet aggregation assay (inhibition of aggregation of gel-filtered human platelets)
# Format: cell-based
# Conditions: fibrinogen 100 μg/ml, Ca2+ 1 mM, 10 uM ADP, 37° C., read-out: IC50 (dose inhibiting aggregation by 50% relative to a control lacking the compound)
# Protocol: The ADP-stimulated platelet aggregation assay was used to determine IC50 inhibition associated with compounds of the invention.
# Human platelets were isolated from fresh blood, collected into acid citrate/dextrose by differential centrifugation followed by gel filtration on Sepharose 2B in divalent ion-free Tyrode's buffer (pH 7.4) containing 2% bovine serum albumin. Platelet aggregation was measured at 37° C. in a a Chronolog aggregometer. The reaction mixture contained gel-filtered human platelets (2×10^8 […]), fibrinogen (100 μg/ml), Ca^2+ (1 mM), and the compound to be tested. Aggregation was initiated by adding 10 uM ADP 1 minute after the other components had been added. The reaction was allowed to proceed for at least 2 minutes. The extent of inhibition of aggregation was expressed as the percentage of the rate of aggregation observed in the absence of inhibitor. The IC50 is the dose of a particular compound inhibiting aggregation by 50% relative to a control lacking the compound.
row,Compound,IC50
1,CCCCS(=O)(=O)N[C@@H](CNC(=O)c1ccc2[nH]c(CCC3CCNCC3)nc2c1)C(=O)O [2-[2-(4-Piperidinyl)ethyl]benzimidazole-5-carbonyl-[2(S)-butylsulfonylamino]-β-alanine],22 nM
2,O=C(N[C@@H](CNC(=O)c1ccc2cc(CCC3CCNCC3)sc2c1)C(=O)O)OCc1ccccc1 [2-[2-(Piperidin-4-yl)ethyl]benzothiophene-6-N-[3-(2(S)-N-carbobenzyloxyaminopropionic acid)]carboxamide],67 nM
3,O=C(NC[C@H](NS(=O)(=O)c1ccccc1)C(=O)O)c1cc2cc(OCCC3CCNCC3)ccc2[nH]1 [5-[2-(4-Piperidinylethyl)oxy]-2-indolecarbonyl-2(S)-phenylsulfonyl0amino-β-alanine],12 nM

# Now from value to molecule:
row,IC50,Compound
1,200 nM,CCCCS(=O)(=O)N[C@@H](Cc1ccc2oc(CCCC3CCNCC3)cc2c1)C(=O)O [2(S)-(Butylsulfonylamino)-3-{5-[2'-3-(piperidin-4-ylpropyl)benzofuranyl]}propionic acid]
2,6600 nM,CCCCS(=O)(=O)N[C@@H](Cc1ccc2oc(C(=O)NCC3CCNCC3)cc2c1)C(=O)O [2(S)-(Butylsulfonylamino)-3-{5-[2'-(4-piperidinylmethyl)aminocarbonyl]benzofuranyl}propionic acid]
3,36 nM,CCCCS(=O)(=O)N[C@@H](CNC(=O)c1ccc2cc(CCC3CCNCC3)sc2c1)C(=O)O [2-[2-(Piperidin-4-yl)ethyl]benzothiophene-6-N-[3-(2(S)-butylsulfonylaminopropionic acid)]carboxamide]
